Assay results from ChEMBL document CHEMBL3853322, “Thrombospondin-1 Mimetic Agonist Peptides Induce Selective Death in Tumor Cells: Design, Synthesis, and Structure-Activity Relationship Studies” (J Med Chem, 2016).
Converted amounts (≈) assume the structure as drawn. Square brackets hold non-standard residues; d marks the D form. Peptide text beside a SMILES is read from it.

Tests used:
[1] = Induction of programmed cell death in human MEC1 cells at 200 uM after 2 hrs by Annexin-V/propidium iodide staining based FACS analysis; assay type: functional
[2] = Drug degradation in human serum at 10 mg/ml after 2 hrs by HPLC analysis; assay type: ADME
[3] = Aqueous solubility of compound in 50 mM sodium succinate buffer at >1 mM at pH 5 by 1D 1H NMR spectroscopic analysis; assay type: physicochemical
[4] = molecular target: Leukocyte surface antigen CD47 (Homo sapiens, UniProt Q08722); experiment: Binding affinity to CD47 receptor in human biotinylated MEC1 cell membranes by biolayer interferometry
[5] = Aqueous solubility of compound in 50 mM sodium succinate buffer at 2 mM at pH 5 by 1D 1H NMR spectroscopic analysis; assay type: physicochemical
[6] = Metabolic stability in human serum at 10 mg/ml at 37 degC after 2 hrs by HPLC analysis; assay type: ADME

Leukocyte surface antigen CD47, sequence (Q08722 whole entry): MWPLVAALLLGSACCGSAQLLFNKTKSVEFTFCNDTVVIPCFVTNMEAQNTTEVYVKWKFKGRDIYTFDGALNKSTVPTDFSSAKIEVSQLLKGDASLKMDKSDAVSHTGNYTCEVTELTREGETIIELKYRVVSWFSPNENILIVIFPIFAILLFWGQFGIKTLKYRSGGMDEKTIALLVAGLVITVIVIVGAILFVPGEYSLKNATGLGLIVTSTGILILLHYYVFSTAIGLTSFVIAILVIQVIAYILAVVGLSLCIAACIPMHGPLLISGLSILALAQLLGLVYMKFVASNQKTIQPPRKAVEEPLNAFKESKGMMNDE

Row | Molecule | Activity [1] [%] | other results
1 | CSCC[C@H](NC(=O)[C@@H](NC(=O)[C@@H](NC(=O)[C@H](Cc1ccc(O)cc1)NC(=O)[C@H](C)NC(=O)[C@H](CCCNC(=N)N)NC(=O)[C@H](N)CCCCN)C(C)C)C(C)C)C(=O)N[C@@H](Cc1c[nH]c2ccccc12)C(=O)N[C@@H](CCCCN)C(=O)N[C@H](CCCCN)C(=O)O (H-[dK]RAYVVMWK[dK]-OH) | 6 | –
2 | Ac-KRFYVVMWKK-NH2 | 30 | Stability [2]: Unstable; solubility [3]: Soluble
3 | CCCCC(NC(=O)[C@@H](NC(=O)[C@@H](NC(=O)[C@H](Cc1ccc(O)cc1)NC(=O)[C@H](Cc1ccccc1)NC(=O)[C@H](CCCNC(=N)N)NC(=O)[C@H](N)CCCCN)C(C)C)C(C)C)C(=O)N[C@@H](Cc1c[nH]c2ccccc12)C(=O)N[C@@H](CCCCN)C(=O)N[C@H](CCCCN)C(=O)O (some centres undefined) | 47 | Kd [4]: 18 µM
4 | CSCC[C@H](NC(=O)[C@@H](NC(=O)[C@@H](NC(=O)[C@H](Cc1ccc(O)cc1)NC(=O)[C@H](Cc1ccccc1)NC(=O)[C@@H](N)CCCNC(=N)N)C(C)C)C(C)C)C(=O)N[C@@H](Cc1c[nH]c2ccccc12)C(=O)N[C@@H](CCCCN)C(=O)O | 13 | solubility at 2000 µM ([5]; 50 mM sodium succinate buffer, pH 5): 30 µM (≈ 33.9 µg/mL)
5 | CSCC[C@H](NC(=O)[C@@H](NC(=O)[C@@H](NC(=O)[C@H](Cc1ccc(O)cc1)NC(=O)[C@H](Cc1ccccc1)NC(=O)[C@H](CCCNC(=N)N)NC(C)=O)C(C)C)C(C)C)C(=O)N[C@@H](Cc1c[nH]c2ccccc12)C(=O)N[C@@H](CCCCN)C(N)=O | 27 | solubility ([5]; buffer, pH 5, 2000 µM): Insoluble; Stability [6]: Stable
6 | CSCC[C@H](NC(=O)[C@H](C)NC(=O)[C@@H](NC(=O)[C@H](Cc1ccc(O)cc1)NC(=O)[C@H](Cc1ccccc1)NC(=O)[C@H](CCCNC(=N)N)NC(=O)[C@H](N)CCCCN)C(C)C)C(=O)N[C@@H](Cc1c[nH]c2ccccc12)C(=O)N[C@@H](CCCCN)C(=O)N[C@H](CCCCN)C(=O)O (H-[dK]RFYVAMWK[dK]-OH) | 30 | –
7 | CC(C)[C@H](NC(=O)[C@H](Cc1ccc(O)cc1)NC(=O)[C@H](Cc1ccccc1)NC(=O)[C@H](CCCNC(=N)N)NC(=O)[C@H](N)CCCCN)C(=O)N[C@H](C(=O)N[C@@H](C)C(=O)N[C@@H](Cc1c[nH]c2ccccc12)C(=O)N[C@@H](CCCCN)C(=O)N[C@H](CCCCN)C(=O)O)C(C)C (H-[dK]RFYVVAWK[dK]-OH) | 6 | –
8 | CSCC[C@H](NC(=O)[C@@H](NC(=O)[C@H](C)NC(=O)[C@H](Cc1ccc(O)cc1)NC(=O)[C@H](Cc1ccccc1)NC(=O)[C@H](CCCNC(=N)N)NC(=O)[C@H](N)CCCCN)C(C)C)C(=O)N[C@@H](Cc1c[nH]c2ccccc12)C(=O)N[C@@H](CCCCN)C(=O)N[C@H](CCCCN)C(=O)O (H-[dK]RFYAVMWK[dK]-OH) | 12 | –
